The supplement of paper PMC10307832

Key:
Assay in all cases: relative viability (nuclei count vs DMSO), 5 days (fraction); higher = more cells survive
[1] = compound: C1CC1C(=O)NC2=NNC3=C2C=CC(=C3)C4=CC(=CC=C4)C(=O)NC5CC5 [XMD13-2] + COc1cccc2cc(-c3nc([C@H]4CC[C@H](C(=O)O)CC4)n4ncnc(N)c34)[nH]c12 [OSI-027] (partner 0.5 µM)
In short: (§1)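 The day after seeding in 1536-well plates, lung cancer cell lines were treated by pin tool with a single drug, or with a fixed anchor-drug dose together with five library-drug doses (not always all listed) in √10 steps. After 5 days, a combined fix-and-stain solution (final 0.05% Triton X-100, 1% formaldehyde, 1 ug/ml Hoechst) was added. Nuclei counted on 4× images gave relative viability as treated counts over vehicle counts, reported as the median of duplicate plates.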

[2] = compound: Cc1ccc(C(=O)Nc2cccc(C(F)(F)F)c2)cc1Nc1cncc(C(N)=O)c1 [ALW-II-49-7] + Cc1nc(Nc2ncc(C(=O)Nc3c(C)cccc3Cl)s2)cc(N2CCN(CCO)CC2)n1 [Dasatinib] (partner 0.075 µM)
In short: as §1

[3] = compound: Cc1nc(Nc2ncc(C(=O)Nc3c(C)cccc3Cl)s2)cc(N2CCN(CCO)CC2)n1 [Dasatinib] + CC(=O)c1c(C)c2cnc(Nc3ccc(N4CCNCC4)cn3)nc2n(C2CCCC2)c1=O [Palbociclib] (partner 0.5 µM)
In short: as §1

[4] = compound: Cc1ccc(C(=O)Nc2cccc(C(F)(F)F)c2)cc1Nc1cncc(C(N)=O)c1 [ALW-II-49-7] + CCNC(=O)c1noc(-c2cc(C(C)C)c(O)cc2O)c1-c1ccc(CN2CCOCC2)cc1 [Luminespib] (partner 0.01 µM)
In short: as §1

| Cell Line | relative viability ([1]; first compound 0.05 µM) | relative viability ([1]; first compound 0.1581 µM) | relative viability ([1]; first compound 0.5 µM) | relative viability ([1]; first compound 1.581 µM) | relative viability ([1]; first compound 5 µM) | relative viability ([2]; first compound 0.08 µM) | relative viability ([2]; first compound 0.253 µM) | relative viability ([2]; first compound 0.8 µM) | relative viability ([2]; first compound 2.53 µM) | relative viability ([2]; first compound 8 µM) | relative viability ([3]; first compound 0.005 µM) | relative viability ([3]; first compound 0.01581 µM) | relative viability ([3]; first compound 0.05 µM) | relative viability ([3]; first compound 0.1581 µM) | relative viability ([3]; first compound 0.5 µM) | relative viability ([4]; first compound 0.08 µM) | relative viability ([4]; first compound 0.253 µM) | relative viability ([4]; first compound 0.8 µM) | relative viability ([4]; first compound 2.53 µM) | relative viability ([4]; first compound 8 µM) |
| --- | --- | --- | --- | --- | --- | --- | --- | --- | --- | --- | --- | --- | --- | --- | --- | --- | --- | --- | --- | --- |
| NCI-H2023 | 0.58 | 0.36 | 0.4 | 0.357 | 0.341 | 0.547 | 0.547 | 0.603 | 0.573 | 0.437 | 0.319 | 0.304 | 0.303 | 0.326 | 0.204 | 0.524 | 0.754 | 0.919 | 0.682 | 0.476 |
| NCI-H1666 | 0.869 | 0.839 | 0.862 | 0.814 | 0.817 | 0.845 | 0.81 | 0.794 | 0.767 | 0.835 | 0.661 | 0.594 | 0.637 | 0.656 | 0.632 | 0.951 | 0.999 | 1.04 | 1.12 | 1 |
| NCI-H1975 | 0.829 | 0.776 | 0.824 | 0.786 | 0.774 | 0.298 | 0.451 | 0.323 | 0.349 | 0.34 | 0.519 | 0.527 | 0.482 | 0.341 | 0.134 | 0.431 | 0.165 | 0.235 | 0.292 | 0.198 |
| NCI-H2170 | 0.748 | 0.703 | 0.744 | 0.559 | 0.704 | 0.725 | 0.531 | 0.608 | 0.512 | 0.614 | 0.377 | 0.394 | 0.397 | 0.288 | 0.204 | 0.73 | 0.372 | 0.418 | 0.826 | 0.784 |
| NCI-H1355 | 0.48 | 0.413 | 0.394 | 0.382 | 0.387 | 0.615 | 0.731 | 0.622 | 0.573 | 0.658 | 0.36 | 0.282 | 0.299 | 0.244 | 0.224 | 0.722 | 0.628 | 0.658 | 0.562 | 0.708 |
| NCI-H1648 | 0.251 | 0.266 | 0.241 | 0.291 | 0.259 |  |  |  |  |  | 0.281 | 0.29 | 0.334 | 0.298 | 0.243 |  |  |  |  |  |
| SK-MES-1 | 0.597 | 0.571 | 0.618 | 0.564 | 0.673 | 0.353 | 0.351 | 0.296 | 0.33 | 0.222 | 0.353 | 0.358 | 0.269 | 0.187 | 0.154 | 0.591 | 0.797 | 0.8 | 0.864 | 0.719 |
| EKVX | 0.832 | 0.68 | 0.78 | 0.682 | 0.863 | 0.382 | 0.481 | 0.546 | 0.425 | 0.454 | 0.412 | 0.319 | 0.332 | 0.199 | 0.13 | 0.679 | 0.812 | 0.825 | 0.903 | 0.803 |
| RERF-LC-KJ | 0.655 | 0.662 | 0.624 | 0.564 | 0.452 | 0.827 | 0.815 | 0.951 | 0.665 | 0.741 | 1.08 | 0.994 | 1.11 | 0.782 | 0.81 | 1.56 | 1.18 | 1.68 | 1.39 | 1.15 |
| NCI-H1755 | 0.798 | 0.699 | 0.797 | 0.576 | 0.775 | 0.397 | 0.442 | 0.459 | 0.408 | 0.308 | 0.438 | 0.435 | 0.401 | 0.322 | 0.235 | 0.341 | 0.497 | 0.421 | 0.283 | 0.268 |
| NCI-H661 | 0.848 | 0.688 | 0.786 | 0.63 | 0.494 | 0.782 | 1.06 | 0.965 | 0.832 | 0.767 | 0.429 | 0.412 | 0.386 | 0.345 | 0.282 | 1.04 | 1.01 | 0.913 | 0.976 | 0.998 |
| LOU-NH91 | 0.753 | 0.716 | 0.759 | 0.663 | 0.815 | 0.544 | 0.588 | 0.521 | 0.504 | 0.414 | 0.569 | 0.51 | 0.553 | 0.498 | 0.369 | 0.384 | 0.363 | 0.321 | 0.276 | 0.283 |
| LXF-289 | 0.874 | 0.761 | 0.829 | 0.697 | 0.867 | 0.213 | 0.286 | 0.24 | 0.187 | 0.183 | 0.603 | 0.676 | 0.672 | 0.384 | 0.118 | 0.731 | 0.626 | 0.825 | 0.688 | 0.848 |
| HCC-44 | 0.565 | 0.57 | 0.507 | 0.381 | 0.438 |  |  |  |  |  | 1.07 | 0.878 | 1.06 | 1.14 | 1.29 |  | 0.987 | 1.12 | 0.333 | 1.04 |
| HARA | 0.661 | 0.438 | 0.43 | 0.446 | 0.636 | 0.351 | 0.272 | 0.148 | 0.22 | 0.161 | 0.303 | 0.243 | 0.155 | 0.177 | 0.114 | 0.465 | 0.655 | 0.545 | 0.833 | 1.17 |
| 201T | 0.95 | 0.731 | 0.854 | 0.701 | 0.723 | 0.616 | 0.664 | 0.545 | 0.594 | 0.479 | 0.341 | 0.306 | 0.311 | 0.296 | 0.237 | 1.06 | 0.907 | 1.07 | 0.993 | 1.09 |
| LC-2-ad | 0.86 | 0.78 | 0.972 | 0.723 | 0.67 | 0.481 | 0.412 | 0.501 | 0.7 | 0.387 | 0.515 | 0.471 | 0.477 | 0.299 | 0.159 | 0.962 | 1.04 | 1.02 | 0.494 | 1 |
